From ChEMBL document CHEMBL3045475, “Sensitivity of Sclerotinia sclerotiorum from oilseed crops to boscalid in Jiangsu Province of China” (Crop Prot, 2009)
Values after ≈ are worked out from the molar mass of the structure shown.

What was measured:
Sclerotinia sclerotiorum [1] = assay: Antifungal activity against carbendazim-resistant and dimethachlon-sensitive Sclerotinia sclerotiorum ZJ47 assessed as inhibition of mycelial growth after 2 days; assay type: functional, organism-based; conditions: ZJ47, 48 h
Sclerotinia sclerotiorum [2] = assay: Antifungal activity against Sclerotinia sclerotiorum in czapek medium assessed as inhibition of mycelial growth after 2 days; assay type: functional, organism-based; conditions: 48 h
Sclerotinia sclerotiorum [3] = assay: Antifungal activity against carbendazim and dimethachlon-sensitive Sclerotinia sclerotiorum YZ116 assessed as inhibition of mycelial growth after 2 days; assay type: functional, organism-based; conditions: YZ116, 48 h
Sclerotinia sclerotiorum [4] = assay: Antifungal activity against carbendazim-resistant and dimethachlon-resistant Sclerotinia sclerotiorum ZJ288-3 assessed as inhibition of mycelial growth after 2 days; assay type: functional, organism-based; conditions: ZJ288-3, 48 h
Sclerotinia sclerotiorum [5] = assay: Antifungal activity against carbendazim-resistant and dimethachlon-resistant Sclerotinia sclerotiorum CZ57-3 assessed as inhibition of mycelial growth after 2 days; assay type: functional, organism-based; conditions: CZ57-3, 48 h
Sclerotinia sclerotiorum [6] = assay: Antifungal activity against carbendazim-resistant and dimethachlon-sensitive Sclerotinia sclerotiorum ZJ288 assessed as inhibition of mycelial growth after 2 days; assay type: functional, organism-based; conditions: ZJ288, 48 h
Sclerotinia sclerotiorum [7] = assay: Antifungal activity against Sclerotinia sclerotiorum in oilseed rape field assessed as disease control at 125/ha measured 1 week before harvest; assay type: functional
Sclerotinia sclerotiorum [8] = assay: Antifungal activity against carbendazim and dimethachlon-sensitive Sclerotinia sclerotiorum SZ62 assessed as inhibition of mycelial growth after 2 days; assay type: functional, organism-based; conditions: SZ62, 48 h
Sclerotinia sclerotiorum [9] = assay: Antifungal activity against carbendazim and dimethachlon-sensitive Sclerotinia sclerotiorum YZ114 assessed as inhibition of mycelial growth after 2 days; assay type: functional, organism-based; conditions: YZ114, 48 h
Sclerotinia sclerotiorum [10] = assay: Antifungal activity against carbendazim-resistant and dimethachlon-sensitive Sclerotinia sclerotiorum TZ83 assessed as inhibition of mycelial growth after 2 days; assay type: functional, organism-based; conditions: TZ83, 48 h
Sclerotinia sclerotiorum [11] = assay: Antifungal activity against carbendazim-resistant and dimethachlon-sensitive Sclerotinia sclerotiorum SZ48 assessed as inhibition of mycelial growth after 2 days; assay type: functional, organism-based; conditions: SZ48, 48 h
Sclerotinia sclerotiorum [12] = assay: Antifungal activity against carbendazim-resistant and dimethachlon-sensitive Sclerotinia sclerotiorum ZJ44 assessed as inhibition of mycelial growth after 2 days; assay type: functional, organism-based; conditions: ZJ44, 48 h
Sclerotinia sclerotiorum [13] = assay: Antifungal activity against carbendazim-resistant and dimethachlon-resistant Sclerotinia sclerotiorum ZJ288-1 assessed as inhibition of mycelial growth after 2 days; assay type: functional, organism-based; conditions: ZJ288-1, 48 h
Sclerotinia sclerotiorum [14] = assay: Antifungal activity against carbendazim-resistant and dimethachlon-resistant Sclerotinia sclerotiorum ZJ288-2 assessed as inhibition of mycelial growth after 2 days; assay type: functional, organism-based; conditions: ZJ288-2, 48 h
Sclerotinia sclerotiorum [15] = assay: Antifungal activity against Sclerotinia sclerotiorum in PDA plates assessed as inhibition of mycelial growth after 2 days; assay type: functional, organism-based; conditions: 48 h
Sclerotinia sclerotiorum [16] = assay: Antifungal activity against Sclerotinia sclerotiorum in synthetic medium assessed as inhibition of mycelial growth after 2 days; assay type: functional, organism-based; conditions: 48 h
Sclerotinia sclerotiorum [17] = assay: Antifungal activity against carbendazim-resistant and dimethachlon-sensitive Sclerotinia sclerotiorum YC35 assessed as inhibition of mycelial growth after 2 days; assay type: functional, organism-based; conditions: YC35, 48 h
Sclerotinia sclerotiorum [18] = assay: Antifungal activity against carbendazim and dimethachlon-sensitive Sclerotinia sclerotiorum SZ47 assessed as inhibition of mycelial growth after 2 days; assay type: functional, organism-based; conditions: SZ47, 48 h
Sclerotinia sclerotiorum [19] = assay: Antifungal activity against Sclerotinia sclerotiorum in oilseed rape field assessed as disease control at 80/ha measured 1 week before harvest; assay type: functional
Sclerotinia sclerotiorum [20] = assay: Antifungal activity against Sclerotinia sclerotiorum in oilseed rape field assessed as disease control at 250/ha measured 1 week before harvest; assay type: functional
Sclerotinia sclerotiorum [21] = assay: Antifungal activity against carbendazim-resistant and dimethachlon-sensitive Sclerotinia sclerotiorum CZ57 assessed as inhibition of mycelial growth after 2 days; assay type: functional, organism-based; conditions: CZ57, 48 h
Sclerotinia sclerotiorum [22] = assay: Antifungal activity against Sclerotinia sclerotiorum in oilseed rape field assessed as disease control at 187.5/ha measured 1 week before harvest; assay type: functional
Sclerotinia sclerotiorum [23] = assay: Antifungal activity against carbendazim-resistant and dimethachlon-resistant Sclerotinia sclerotiorum CZ57-1 assessed as inhibition of mycelial growth after 2 days; assay type: functional, organism-based; conditions: CZ57-1, 48 h
Sclerotinia sclerotiorum [24] = assay: Antifungal activity against carbendazim and dimethachlon-sensitive Sclerotinia sclerotiorum YZ112 assessed as inhibition of mycelial growth after 2 days; assay type: functional, organism-based; conditions: YZ112, 48 h
Sclerotinia sclerotiorum [25] = assay: Antifungal activity against carbendazim-resistant and dimethachlon-resistant Sclerotinia sclerotiorum CZ57-2 assessed as inhibition of mycelial growth after 2 days; assay type: functional, organism-based; conditions: CZ57-2, 48 h
Sclerotinia sclerotiorum [26] = assay: Antifungal activity against Sclerotinia sclerotiorum in oilseed rape field assessed as disease control at 750/ha measured 1 week before harvest; assay type: functional
Sclerotinia sclerotiorum [27] = assay: Antifungal activity against Sclerotinia sclerotiorum in oilseed rape field assessed as disease control at 690/ha measured 1 week before harvest; assay type: functional

Row | Compound | EC50 (Sclerotinia sclerotiorum [1]) | EC50 (Sclerotinia sclerotiorum [3]) | EC50 (Sclerotinia sclerotiorum [4]) | EC50 (Sclerotinia sclerotiorum [5]) | EC50 (Sclerotinia sclerotiorum [6]) | EC50 (Sclerotinia sclerotiorum [8]) | EC50 (Sclerotinia sclerotiorum [9]) | EC50 (Sclerotinia sclerotiorum [10]) | EC50 (Sclerotinia sclerotiorum [11]) | EC50 (Sclerotinia sclerotiorum [12]) | EC50 (Sclerotinia sclerotiorum [13]) | EC50 (Sclerotinia sclerotiorum [14]) | EC50 (Sclerotinia sclerotiorum [17]) | EC50 (Sclerotinia sclerotiorum [18]) | EC50 (Sclerotinia sclerotiorum [21]) | EC50 (Sclerotinia sclerotiorum [23]) | EC50 (Sclerotinia sclerotiorum [24]) | EC50 (Sclerotinia sclerotiorum [25]) | also measured
1 | O=C(Nc1ccccc1-c1ccc(Cl)cc1)c1cccnc1Cl [BOSCALID] | 0.188 µg/mL (≈ 0.548 µM) | 0.195 µg/mL (≈ 0.568 µM) | 0.262 µg/mL (≈ 0.763 µM) | 0.163 µg/mL (≈ 0.475 µM) | 0.18 µg/mL (≈ 0.524 µM) | 0.17 µg/mL (≈ 0.495 µM) | 0.195 µg/mL (≈ 0.568 µM) | 0.19 µg/mL (≈ 0.554 µM) | 0.168 µg/mL (≈ 0.489 µM) | 0.223 µg/mL (≈ 0.65 µM) | 0.195 µg/mL (≈ 0.568 µM) | 0.126 µg/mL (≈ 0.367 µM) | 0.195 µg/mL (≈ 0.568 µM) | 0.181 µg/mL (≈ 0.527 µM) | 0.186 µg/mL (≈ 0.542 µM) | 0.115 µg/mL (≈ 0.335 µM) | 0.211 µg/mL (≈ 0.615 µM) | 0.183 µg/mL (≈ 0.533 µM) | EC50 (Sclerotinia sclerotiorum [2]): 0.13 µg/mL (≈ 0.379 µM); Activity (Sclerotinia sclerotiorum [7]): 65.2%; EC50 (Sclerotinia sclerotiorum [15]): 0.17 µg/mL (≈ 0.495 µM); EC50 (Sclerotinia sclerotiorum [16]): 0.12 µg/mL (≈ 0.35 µM); Activity (Sclerotinia sclerotiorum [19]): 49.7%; Activity (Sclerotinia sclerotiorum [20]): 75.1%; Activity (Sclerotinia sclerotiorum [22]): 69%
2 | COC(=O)Nc1nc2ccccc2[nH]1 [CARBENDAZIM] | > 100 µg/mL | 0.137 µg/mL (≈ 0.717 µM) | > 100 µg/mL | > 100 µg/mL | 0.147 µg/mL (≈ 0.769 µM) | 0.186 µg/mL (≈ 0.973 µM) | 0.134 µg/mL (≈ 0.701 µM) | > 100 µg/mL | > 100 µg/mL | > 100 µg/mL | > 100 µg/mL | > 100 µg/mL | > 100 µg/mL | 0.177 µg/mL (≈ 0.926 µM) | 0.168 µg/mL (≈ 0.879 µM) | > 100 µg/mL | 0.106 µg/mL (≈ 0.554 µM) | > 100 µg/mL | Activity (Sclerotinia sclerotiorum [26]): 18.9%
3 | O=C1CCC(=O)N1c1cc(Cl)cc(Cl)c1 [DIMETHACHLON] | 0.367 µg/mL (≈ 1.5 µM) | 0.346 µg/mL (≈ 1.42 µM) | 68 µg/mL (≈ 279 µM) | 125 µg/mL (≈ 511 µM) | 0.397 µg/mL (≈ 1.63 µM) | 0.351 µg/mL (≈ 1.44 µM) | 0.365 µg/mL (≈ 1.5 µM) | 0.335 µg/mL (≈ 1.37 µM) | 0.364 µg/mL (≈ 1.49 µM) | 0.317 µg/mL (≈ 1.3 µM) | 92.4 µg/mL (≈ 378 µM) | 86.8 µg/mL (≈ 356 µM) | 0.306 µg/mL (≈ 1.25 µM) | 0.321 µg/mL (≈ 1.32 µM) | 0.406 µg/mL (≈ 1.66 µM) | 166 µg/mL (≈ 682 µM) | 0.401 µg/mL (≈ 1.64 µM) | 152 µg/mL (≈ 622 µM) | Activity (Sclerotinia sclerotiorum [27]): 44.6%
